Assay results published in patent US8524727B2, “Pyrimidine compound” (Astellas Pharma Inc., priority 2009, dated 2013).
Each block holds one compound with its values, some of them ahead of it.

What was measured:
human CB2 = target: T1, human CB2 (Homo sapiens, UniProt P34972); experiment: Human CB2-mediated cyclic AMP (cAMP) production inhibition assay; type: cell-based; details: 30 nM test substance, human CB2-expressing CHO cells, forskolin 0.5 μM, 30 minutes at room temperature; for inhibition at 0.03 µM: CHO, read-out: Inh (%): inhibitory rate of cAMP increase
T1 construct: expressed in transfected cells; host or cells: CHO cells
Procedure: The present test was performed using CHO cells expressing human CB2 (“Molecular Pharmacology”, 1995, vol. 48, p. 443-450).
A suspension of human CB2-expressing CHO cells (2.5×10^3/mL), and an assay medium added with a test substance and forskolin (final concentration 0.5 μM) were mixed in the equivalent amounts, and incubated at room temperature for 30 minutes. Then, the cAMP concentration in the cell lysis solution obtained by the addition of a 0.6% Triton X-100 solution was measured using a cAMP kit (manufactured by Cisbio international). The assay medium includes an α-MEM medium manufactured by Invitrogen, supplemented with 0.02% CHAPS, 1 mM isobutylmethyl xanthine, and 0.5 mg/mL bovine serum albumin. As the cAMP concentration in the cell suspension without the addition of forskolin was set as a cAMP increase rate of 0% and the cAMP concentration in the cell suspension with the addition of forskolin was set as a cAMP increase rate of 100%, the inhibitory rate of the intracellular cAMP increase at 30 nM test substance was determined.
In the table, Ex indicates Example Compound number below, and Inh indicates an inhibitory rate of cAMP increase.

[1] = system: adjuvant-induced arthritis rats; experiment: Inhibitory effect on hind paw weight distribution in adjuvant-induced arthritis rats; type: in vivo; details: orally administered, female Lewis rats
Procedure: For the experiment, female Lewis rats (7-8 week old) were used. 50 μL of inactivated Mycobacterium tuberculosis H37 Ra (manufactured by DIFCO) suspended with liquid paraffin to 10 mg/mL was administered subcutaneously into the right hindlimb footpad. The test substance was orally administered next day, the weights of the left and right hind paws after an arbitrary time were measured using Incapasitance Tester (manufactured by Columbus Instruments), and the weight distribution between left and right was calculated. As the weight distribution of the group administered with the vehicle was set as the inhibitory rate of 0% and the weight distribution of the normal group was set as the inhibitory rate of 100%, the inhibitory rate of the test substance was calculated.
In the table, Ex indicates Example Compound number below, Inh indicates an inhibitory rate of the weight distribution, and the description after to @ means the administration amount.

T1 sequence (P34972 whole entry): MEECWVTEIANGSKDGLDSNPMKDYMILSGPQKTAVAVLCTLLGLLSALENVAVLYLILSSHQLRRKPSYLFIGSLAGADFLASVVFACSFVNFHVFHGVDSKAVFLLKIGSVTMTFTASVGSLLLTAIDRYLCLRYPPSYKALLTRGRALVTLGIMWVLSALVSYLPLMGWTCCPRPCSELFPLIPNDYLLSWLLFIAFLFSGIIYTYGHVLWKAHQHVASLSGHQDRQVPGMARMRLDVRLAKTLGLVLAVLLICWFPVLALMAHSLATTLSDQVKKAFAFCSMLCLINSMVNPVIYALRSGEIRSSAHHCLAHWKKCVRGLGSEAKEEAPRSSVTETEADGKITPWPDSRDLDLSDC

Compound: CC(C)c1nc(N[C@@H]2C[C@H]3CC[C@@H]2C3)ncc1C(=O)N1CCOCC1 [Example 64]
Inh (%): inhibitory rate of the weight distribution ([1]; 0.1 mpk): 52@0.1 mpk % | Inh (%): inhibitory rate of cAMP increase (human CB2): 85%

Compound: O=C(c1cnc(NC23CC4CC(CC(O)(C4)C2)C3)nc1C(F)(F)F)N1CC(F)(F)C(F)(F)C1 [Example 88]
inhibition at 0.03 µM (human CB2): 76%

Compound: O=C(c1cnc(N[C@@H]2C[C@H]3CC[C@@H]2C3)nc1C(F)(F)F)N1CCS(=O)(=O)CC1 [Example 103]
Inh (%): inhibitory rate of the weight distribution ([1]; 0.3 mpk): 41@0.3 mpk % | inhibition at 0.03 µM (human CB2): 67%

Compound: CC1(C)[C@@H]2CC[C@@]1(C)[C@@H](Nc1ncc(C(=O)N3CCS(=O)(=O)CC3)c(C(F)(F)F)n1)C2 [Example 106]
inhibition at 0.03 µM (human CB2): 74%

Compound: O=C(c1cnc(N[C@H]2C[C@@H]3CC[C@H]2C3)nc1C(F)(F)F)N1CCS(=O)(=O)CC1 [Example 138]
inhibition at 0.03 µM (human CB2): 49%

Compound: O=C(c1cnc(NC23CC4CC(CC(C4)C2)C3)nc1C(F)(F)F)N1CCOCC1 [Example 143]
inhibition at 0.03 µM (human CB2): 70%

Compound: FC1(F)CCN(Cc2cnc(N[C@@H]3C[C@H]4CC[C@@H]3C4)nc2C(F)(F)F)CC1 [Example 161]
inhibition at 0.03 µM (human CB2): 75%

Second part, led by results:

inhibition at 0.03 µM (human CB2): 79%
Compound: O=C(c1cnc(NC23CC4CC(CC(C4)C2)C3)nc1C(F)(F)F)N1CCC(F)(F)CC1 [Example 45]

inhibition at 0.03 µM (human CB2): 63%
Compound: CC1(C)CCN(c2ncc(C(=O)N3CCS(=O)(=O)CC3)c(C(F)(F)F)n2)c2ccccc21 [Example 55]

inhibition at 0.03 µM (human CB2): 76%
Compound: O=C(c1cnc(N[C@@H]2C[C@H]3CC[C@@H]2C3)nc1C1CC1)N1CCS(=O)(=O)CC1 [Example 67]

inhibition at 0.03 µM (human CB2): 99%
Compound: CC(C)(C)c1nc(N[C@@H]2C[C@H]3CC[C@@H]2C3)ncc1C(=O)N1CCOCC1 [Example 72]
Inh (%): inhibitory rate of the weight distribution ([1]; 0.1 mpk): 40@0.1 mpk %

inhibition at 0.03 µM (human CB2): 74%
Compound: CC(C)c1nc(N[C@H]2C[C@@H]3CC[C@H]2C3)ncc1C(=O)N1CCOCC1 [Example 79]

inhibition at 0.03 µM (human CB2): 84%
Compound: CC(C)c1nc(N[C@@H]2C[C@H]3CC[C@@H]2C3)ncc1C(=O)N1CCOCC1 [Example 83]

inhibition at 0.03 µM (human CB2): 80%
Compound: O=C(c1cnc(NC23CC4(F)CC(F)(CC(F)(C4)C2)C3)nc1C(F)(F)F)N1CCS(=O)(=O)CC1 [Example 109]
Inh (%): inhibitory rate of the weight distribution ([1]; 0.3 mpk): 35@0.3 mpk %

inhibition at 0.03 µM (human CB2): 70%
Compound: O=C(c1cnc(NC23CCC(CC2)CC3)nc1C(F)(F)F)N1CCS(=O)(=O)CC1 [Example 122]
Inh (%): inhibitory rate of the weight distribution ([1]; 0.1 mpk): 45@0.1 mpk %

Inh (%): inhibitory rate of cAMP increase (human CB2): 80%
Compound: O=C(c1cnc(N[C@@H]2C[C@H]3CC[C@@H]2C3)nc1C(F)(F)F)N1CCS(=O)(=O)CC1 [Example 133]
